Paper PMC4370192, “Discovery of Specific Inhibitors for Intestinal E. coli β-Glucuronidase through In Silico Virtual Screening” (The Scientific World Journal, 2015)

Tests used:
human βG (hβG) = molecular target: T1, human βG (hβG) (Homo sapiens, UniProt P08236); assay: In vitro βG-activity assay (pNPG hydrolysis), hβG; format: biochemical; settings: pH 5.4, percent of activity vs untreated control
T1 construct: histidine tag (N); made in house; host or cells: E. coli BL21 (DE3)
T1 sequence (P08236 23-651): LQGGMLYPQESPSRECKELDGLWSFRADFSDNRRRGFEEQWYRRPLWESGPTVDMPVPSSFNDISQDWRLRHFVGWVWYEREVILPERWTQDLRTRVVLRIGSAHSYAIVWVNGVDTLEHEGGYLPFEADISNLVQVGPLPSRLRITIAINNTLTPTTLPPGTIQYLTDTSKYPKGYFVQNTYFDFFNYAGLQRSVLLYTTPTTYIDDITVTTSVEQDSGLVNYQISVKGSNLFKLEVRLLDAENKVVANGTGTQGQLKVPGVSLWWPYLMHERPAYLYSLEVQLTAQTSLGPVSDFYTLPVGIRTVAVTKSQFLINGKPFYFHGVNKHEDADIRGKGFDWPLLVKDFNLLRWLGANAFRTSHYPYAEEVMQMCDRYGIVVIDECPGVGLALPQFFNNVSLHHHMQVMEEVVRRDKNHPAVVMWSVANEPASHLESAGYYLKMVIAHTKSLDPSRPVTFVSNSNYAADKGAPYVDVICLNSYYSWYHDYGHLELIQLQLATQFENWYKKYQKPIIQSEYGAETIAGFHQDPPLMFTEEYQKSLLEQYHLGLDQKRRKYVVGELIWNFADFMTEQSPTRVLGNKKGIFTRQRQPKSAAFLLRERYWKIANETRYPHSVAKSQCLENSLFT
Protocol: (§1) Plasmid pRESTB containing βG gene and a histidine tag at the N-terminus was constructed as described. Recombinant βG (human and E. coli) was produced by isopropyl β-D-thiogalactopyranoside (IPTG) induction of BL21 (DE3) bacteria. βG was purified from bacterial supernatants by affinity chromatography on nickels Sepharose 6 Fast Flow (GE Healthcare). The column was washed by phosphate-buffered saline (PBS), with 50 mM imidazole, and βG was eluted by PBS with 250 mM imidazole. The purified βG was desalted on a Sephadex G-25 column equilibrated with PBS and stored at −80°C.
(§2) The candidate compounds were purchased from SPECS (The Netherlands). Each candidate was provided as a solid power and dissolved in 100% DMSO (Sigma-Aldrich) to 10 mM as stock. Candidates were screened for their inhibition specificity of eβG versus hβG, which were conducted at pH 7.3 or pH 5.4, in triplicate, respectively. 40 μL purified βG was treated with 10 μL compound solution at 37°C for 30 min and sequentially incubated with 50 μL of pNPG (Sigma-Aldrich) at 37°C for 30 min. Reactions were quenched with 5 μL of 2 N sodium hydroxide (Sigma-Aldrich). Each reaction consisted of 3.75 ng purified βG, 50 μM compound, and 5 mM pNPG in PBS containing 10% DMSO and 0.05% BSA (Sigma-Aldrich). βG-activities were measured by color development of pNP detected on a microplate reader at OD 405 nm.
(Table S1) The candidate compounds were purchased from SPECS (Zoetermeer, The Netherlands). Each candidate was rovided as a solid power and dissolved in 100% DMSO (Sigma-Aldrich, MO, USA) to 10 mM as stock. Candidates were screening for their inhibition specificity of eβG verse hβG, which were conducted at pH 7.3 or pH 5.4 in triplicate, respectively. 40 µL purified βG was treated with 10 µL compound solution at 37 °C for 30 min, and sequentially incubated with 50 µL of pNPG (Sigma-Aldrich) at 37 °C for 30 min. Reactions were quenched with 5 µL of 2 N sodium hydroxide (Sigma-Aldrich). Each reaction consisted of 3.75 ng purified βG, 50 µM compound, and 5 mM pNPG in PBS containing 10% DMSO and 0.05% BSA (Sigma-Aldrich). βG-activities were measured by color development of pNP detected on a microplate reader at OD 405 nm. […]
candidate compounds were purchased from SPECS (Zoetermeer, The Netherlands). Each candidate was provided as a solid power and dissolved in 100% DMSO (Sigma-Aldrich, MO, USA) to 10 mM as stock. Candidates were screening for their inhibition specificity of eβG verse hβG, which were conducted at pH 7.3 or pH 5.4 in triplicate, respectively. 40 μL purified βG was treated with 10 μL compound solution at 37 °C for 30 min, and sequentially incubated with 50 μL of pNPG (Sigma-Aldrich) at 37 °C for 30 min. Reactions were quenched with 5 μL of 2 N sodium hydroxide (Sigma-Aldrich). Each reaction consisted of 3.75 ng purified βG, 50 μM compound, and 5 mM pNPG in PBS containing 10% DMSO and 0.05% BSA (Sigma-Aldrich). βG-activities were measured by color development of pNP detected on a microplate reader at OD 405 nm.

[1] = molecular target: T2, E. coli β-glucuronidase (eβG) (Escherichia coli, UniProt P05804); assay: In vitro βG-activity assay (pNPG hydrolysis), eβG; format: biochemical; settings: for eβG activity (%) with 50 μM compound: pH 7.3, percent of activity vs untreated control
T2 construct: histidine tag (N); made in house; host or cells: E. coli BL21 (DE3)
Protocol: as §1
as §2, with “nm. […] For IC50 determination, compounds at various concentrations (100 μM to 0.001 μM) were added.” for “nm.”
Supplementary file 740815.f1.pdf: Fifty-nine candidate compounds were acquired from the initial virtually screening which was designed to target the bacterial loop of eβG and its active site. The docking energy scores of 59 candidate compounds measured by the DOCK program are -43 to -55 kcal/mol. (Table S1) The candidate compounds were purchased from SPECS (Zoetermeer, The Netherlands). Each candidate was rovided as a solid power and dissolved in 100% DMSO (Sigma-Aldrich, MO, USA) to 10 mM as stock. Candidates were screening for their inhibition specificity of eβG verse hβG, which were conducted at pH 7.3 or pH 5.4 in triplicate, respectively. 40 µL purified βG was treated with 10 µL compound solution at 37 °C for 30 min, and sequentially incubated with 50 µL of pNPG (Sigma-Aldrich) at 37 °C for 30 min. Reactions were quenched with 5 µL of 2 N sodium hydroxide (Sigma-Aldrich). Each reaction consisted of 3.75 ng purified βG, 50 µM compound, and 5 mM pNPG in PBS containing 10% DMSO and 0.05% BSA (Sigma-Aldrich). βG-activities were measured by color development of pNP detected on a microplate reader at OD 405 nm. […] Especially, the inhibiting ability against eβG activity was >95% in 7 candidates of eβG specific inhibitors (Table S1).
Fifty-nine candidate compounds were acquired from the initial virtually screening which was designed to target the bacterial loop of eβG and its active site. The docking energy scores of 59 candidate compounds measured by the DOCK program are -43 to -55 kcal/mol. (Table S1) The candidate compounds were purchased from SPECS (Zoetermeer, The Netherlands). Each candidate was provided as a solid power and dissolved in 100% DMSO (Sigma-Aldrich, MO, USA) to 10 mM as stock. Candidates were screening for their inhibition specificity of eβG verse hβG, which were conducted at pH 7.3 or pH 5.4 in triplicate, respectively. 40 μL purified βG was treated with 10 μL compound solution at 37 °C for 30 min, and sequentially incubated with 50 μL of pNPG (Sigma-Aldrich) at 37 °C for 30 min. Reactions were quenched with 5 μL of 2 N sodium hydroxide (Sigma-Aldrich). Each reaction consisted of 3.75 ng purified βG, 50 μM compound, and 5 mM pNPG in PBS containing 10% DMSO and 0.05% BSA (Sigma-Aldrich). βG-activities were measured by color development of pNP detected on a microplate reader at OD 405 nm. […]
percent of βG activity compared with the untreated control.
Especially, the inhibiting ability against eβG activity was >95% in 7 candidates of eβG specific inhibitors (Table S1).
Table S1. […]

T2 sequence (P05804 whole entry): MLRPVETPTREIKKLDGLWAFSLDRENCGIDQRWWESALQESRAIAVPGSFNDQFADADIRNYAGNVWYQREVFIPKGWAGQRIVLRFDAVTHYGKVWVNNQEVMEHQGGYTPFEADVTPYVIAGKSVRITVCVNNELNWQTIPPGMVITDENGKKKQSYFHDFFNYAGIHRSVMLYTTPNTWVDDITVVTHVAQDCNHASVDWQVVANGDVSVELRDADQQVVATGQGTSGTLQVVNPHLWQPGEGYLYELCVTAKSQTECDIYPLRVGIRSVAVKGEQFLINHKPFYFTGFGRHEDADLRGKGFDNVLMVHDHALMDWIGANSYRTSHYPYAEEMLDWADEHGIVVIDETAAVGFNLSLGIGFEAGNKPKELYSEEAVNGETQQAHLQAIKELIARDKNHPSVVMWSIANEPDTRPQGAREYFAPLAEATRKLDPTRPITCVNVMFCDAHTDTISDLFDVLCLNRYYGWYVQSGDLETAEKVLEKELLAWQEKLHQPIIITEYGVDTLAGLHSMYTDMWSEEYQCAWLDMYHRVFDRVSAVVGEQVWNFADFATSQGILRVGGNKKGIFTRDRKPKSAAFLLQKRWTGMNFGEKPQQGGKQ

SMILES | hβG activity (%) with 50 μM compound (human βG (hβG)) | eβG activity (%) with 50 μM compound [1] | inhibition at 10 µM ([1]; read-out: inhibition of eβG activity) | IC50 ([1]; recombinant eβG, pNPG substrate, pH 7.3)
COc1cc(C(=O)NCC(=N)N)cc(OC)c1OC [Compound 0015] | 108.51% | 17.59% | – | –
COc1cc2ccccc2cc1C(=O)N1CCN(C)CC1 [Compound 0030] | 111.74% | 58.19% | – | –
Cc1cc2nc(C[n+]3cccc(C(N)=O)c3)[nH]c2cc1C [Compound 0136] | 108.76% | 19.16% | – | –
CN1CCN(CC(=O)Nc2c(C#N)cnn2-c2ccccc2)CC1 [Compound 0220] | 113.55% | 47.15% | – | –
CCOC(=O)N1CCC2(CC1)OS(=O)(=O)C=C2N [Compound 0523] | 109.26% | 31.77% | – | –
Cc1cccc2n(C)c(/C=N/N=C(N)N)c[n+]12 [Compound 0956] | 103.31% | 29.70% | – | –
O=C(O)C1CCCCC1C(=O)Nc1ccc(Oc2ccc(Cl)cc2)cc1 (stereo not drawn) [Compound 1013] | 126.45% | 34.76% | – | –
CCN1C(=O)c2cccc3c(S(=O)(=O)N4CCN(C)CC4)ccc1c23 [Compound 1046] | 106.69% | 45.94% | – | –
CCOC(=O)c1ccc(NC(=S)N2CCN(C)CC2)cc1 [Compound 1089] | 119.17% | 47.22% | – | –
Cc1cc(/C=C2\SC(=Nc3ccc(F)cc3)NC2=O)c(C)n1-c1ccc(S(N)(=O)=O)cc1 [Compound 1135] | 118.10% | 3.70% | – | –
Cc1ccccc1NC(=O)c1cccc(NC(=O)c2cc(Cl)c(Cl)cc2C(=O)O)c1 [Compound 1306] | 105.45% | 29.20% | – | –
Cc1ccc(Cl)cc1NC1=NS(=O)(=O)c2ccccc21 [Compound 1448] | 109.67% | 11.11% | – | –
CCc1sc(NC(=O)C2CCCCC2C(=O)O)nc1-c1ccccc1 (stereo not drawn) [Compound 1501] | 105.12% | 27.85% | – | –
NC(N)=Nc1nc2ccc(Br)cc2c(=O)[nH]1 [Compound 2020] | 84.13% | 13.68% | – | –
N=c1c(Nc2ccc(F)cc2)nnc(N)n1C(=O)c1ccccc1 [Compound 2074] | 101.07% | 12.46% | – | –
CNC(=S)Nn1cnc2c(cnn2-c2ccccc2)c1=N [Compound 2138] | 107.27% | 19.23% | – | –
CN1CCN(C(=O)c2cc3cc([N+](=O)[O-])ccc3oc2=O)CC1 [Compound 2715] | 114.38% | 53.06% | – | –
Cc1cccnc1NCn1c(=O)oc2cc([N+](=O)[O-])ccc21 [Compound 3043] | 103.55% | 25.14% | – | –
CN1CCN(Cc2nc3sc4c(c3c(=O)[nH]2)CCCC4)CC1 [Compound 3181] | 88.02% | 30.27% | – | –
COc1cc(C(=O)OC(C)CN2CCN(C)CC2)cc(OC)c1OC (stereo not drawn) [Compound 3250] | 96.94% | 33.62% | – | –
Cc1ccc(S(=O)(=O)N=C2C=C(Sc3nnc[nH]3)C(=O)c3ccccc32)cc1 [Compound 4041, 4-methyl-N-(4-oxo-3-(1H-1,2,4-triazol-5ylsulfanyl)-1(4H)-naphthalenylidene)benzenesulfonamide] | – | – | > 80% | 2800 nM
